Experimental data: patent US20170001990A1 (Genentech, Inc., priority 2014, published 2017)

Biological target: Human recombinant carboxy-terminal his-tagged LDHA (amino acids 2-332) (Homo sapiens, UniProt P00338)
Assay: LDHA enzyme inhibition assay (NADH fluorescence)
Settings: LDHA IC50 (μM), 1 nM LDHA, NADH and pyruvate, stereochemistry of tested sample given

SMILES | IC50 [µM]
O=C1CCC(COc2cccc(C3(c4ccsc4)CC(=O)C(Sc4ccccc4Cl)C(=O)N3)n2)O1 (single isomer, unassigned) [Example 193, 3-(2-chlorophenyl)sulfanyl-6-[6-[(5-oxotetrahydrofuran-2-yl)methoxy]-2-pyridyl]-6-(3-thienyl)piperidine-2,4-dione] | 0.059
O=C1CC(c2ccsc2)(c2cccc(OCC3CCCO3)n2)NC(=O)C1Sc1ccccc1Cl (single isomer, unassigned) [Example 195, 3-(2-chlorophenyl)sulfanyl-6-[6-(tetrahydrofuran-2-ylmethoxy)-2-pyridyl]-6-(3-thienyl)piperidine-2,4-dione] | 0.143
O=C1CC(c2ccsc2)(c2cccc(OCC3CC(F)(F)C3)n2)NC(=O)C1Sc1ccccc1Cl (single isomer, unassigned) [Example 196, 3-(2-chlorophenyl)sulfanyl-6-[6-[(3,3-difluorocyclo-butyl)methoxy]-2-pyridyl]-6-(3-thienyl)piperidine-2,4-dione] | 0.036
O=C1CC(c2ccsc2)(c2cccc(Sc3ccc(F)cc3)n2)NC(=O)C1Sc1ccccc1Cl (single isomer, unassigned) [Example 198, 3-(2-chlorophenyl)sulfanyl-6-[6-(4-fluorophenyl)sulfanyl-2-pyridyl]-6-(3-thienyl)piperidine-2,4-dione] | 0.177
CCOCCOc1cccc(C2(c3ccsc3)CC(=O)C(Sc3ccccc3Cl)C(=O)N2)n1 (single isomer, unassigned) [Example 200, 3-(2-chlorophenyl)sulfanyl-6-[6-(2-ethoxyethoxy)-2-pyridyl]-6-(3-thienyl) piperidine-2,4-dione] | 0.229
COCCCOc1cccc(C2(c3ccsc3)CC(=O)C(Sc3ccccc3Cl)C(=O)N2)n1 (single isomer, unassigned) [Example 201, 3-(2-chlorophenyl)sulfanyl-6-[6-(3-methoxypropoxy)-2-pyridyl]-6-(3-thienyl) piperidine-2,4-dione] | 0.037
O=C1CC(c2ccsc2)(c2cccc(Oc3cncc(F)c3)n2)NC(=O)C1Sc1ccccc1Cl (single isomer, unassigned) [Example 202, 3-(2-chlorophenyl)sulfanyl-6-[6-[(5-fluoro-3-pyridyl)oxy]-2-pyridyl]-6-(3-thienyl) piperidine-2,4-dione] | 0.018
O=C1CC(c2ccsc2)(c2cccc(OC3CCCCC3)n2)NC(=O)C1Sc1ccccc1Cl (single isomer, unassigned) [Example 205, 3-(2-chlorophenyl)sulfanyl-6-[6-(cyclohexoxy)-2-pyridyl]-6-(3-thienyl) piperidine-2,4-dione] | 0.058

Stronger by IC50, values ahead:

IC50 [µM] | SMILES
0.012 | O=C1CC(c2ccsc2)(c2cccc(OCC3COC3)n2)NC(=O)C1Sc1ccccc1Cl (single isomer, unassigned) [Example 199, 3-(2-chlorophenyl)sulfanyl-6-[6-(oxetan-3-ylmethoxy)-2-pyridyl]-6-(3-thienyl) piperidine-2,4-dione]
0.01 | O=C1CC(c2ccsc2)(c2cccc(Oc3ccccc3Br)n2)NC(=O)C1Sc1ccccc1Cl (single isomer, unassigned) [Example 197, 6-[6-(2-bromophenoxy)-2-pyridyl]-3-(2-chlorophenyl) sulfanyl-6-(3-thienyl) piperidine-2,4-dione]
0.007 | O=C1CC(c2ccsc2)(c2cccc(Cc3ccccc3)n2)NC(=O)C1Sc1ccccc1Cl (single isomer, unassigned) [Example 204, 6-(6-benzyl-2-pyridyl)-3-(2-chlorophenyl)sulfanyl-6-(3-thienyl)piperidine-2,4-dione]
0.005 | O=C1CC(c2ccsc2)(c2cccc(OCC3CCCC3)n2)NC(=O)C1Sc1ccccc1Cl (single isomer, unassigned) [Example 194, 3-(2-chlorophenyl)sulfanyl-6-[6-(cyclopentyl-methoxy)-2-pyridyl]-6-(3-thienyl)piperidine-2,4-dione]
